Assay results as given in patent US10519134B2, “Pyrazole compounds and methods of making and using same” (Lundbeck La Jolla Research Center, Inc., priority 2015, dated 2019).

Experiments:
[1] = molecular target: T1, FAAH (Mus musculus, UniProt O08914); experiment: In vitro competitive activity-based protein profiling (mouse), FAAH gel band; format: biochemical; conditions: for inhibition at 1 µM: read-out: FAAH % inh. 1 μM; for IC50: mouse
T1 construct: Proteomes (mouse brain membrane fraction or cell lysates); from tissue; host or cells: mouse brain membrane fraction (or cell lysates)
T1 sequence (O08914 1-579): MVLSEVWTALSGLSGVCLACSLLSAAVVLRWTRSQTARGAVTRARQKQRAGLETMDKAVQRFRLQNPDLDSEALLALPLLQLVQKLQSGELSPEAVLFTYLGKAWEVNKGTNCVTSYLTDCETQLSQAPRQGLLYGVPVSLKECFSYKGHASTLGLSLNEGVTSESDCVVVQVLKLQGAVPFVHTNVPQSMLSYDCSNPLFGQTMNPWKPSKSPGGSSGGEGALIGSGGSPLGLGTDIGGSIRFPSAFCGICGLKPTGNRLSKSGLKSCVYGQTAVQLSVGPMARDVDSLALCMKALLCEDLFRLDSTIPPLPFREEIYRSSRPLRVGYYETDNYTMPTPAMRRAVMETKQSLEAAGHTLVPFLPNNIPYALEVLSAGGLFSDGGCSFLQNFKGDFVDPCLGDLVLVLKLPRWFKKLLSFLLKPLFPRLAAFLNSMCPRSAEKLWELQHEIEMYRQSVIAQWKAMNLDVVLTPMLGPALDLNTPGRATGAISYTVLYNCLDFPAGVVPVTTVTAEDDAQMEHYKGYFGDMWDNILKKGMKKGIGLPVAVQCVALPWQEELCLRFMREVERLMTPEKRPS
Experimental: (§1) In Vitro Competitive Activity-Based Protein Profiling (Mouse).
(§2) Proteomes (mouse brain membrane fraction or cell lysates) (50 μL, 1.0 mg/mL total protein concentration) were preincubated with varying concentrations of inhibitors at 37° C. After 30 min, FP-Rh or HT-01 (1.0 μL, 50 μM in DMSO) was added and the mixture was incubated for another 30 min at 37° C. Reactions were quenched with SDS loading buffer (15 μL—4×) and run on SDS-PAGE. Following gel imaging, serine hydrolase activity was determined by measuring fluorescent intensity of gel bands corresponding to MAGL, ABHD6, and FAAH, using ImageJ 1.43u software.

[2] = molecular target: T2, MAGL (Mus musculus, UniProt O35678); experiment: In vitro competitive activity-based protein profiling (mouse), MAGL gel band; format: biochemical; conditions: for inhibition at 1 µM: read-out: MAGL % inh. 1 μM; for IC50: mouse
T2 construct: Proteomes (mouse brain membrane fraction or cell lysates); from tissue; host or cells: mouse brain membrane fraction (or cell lysates)
T2 sequence (O35678 1-303): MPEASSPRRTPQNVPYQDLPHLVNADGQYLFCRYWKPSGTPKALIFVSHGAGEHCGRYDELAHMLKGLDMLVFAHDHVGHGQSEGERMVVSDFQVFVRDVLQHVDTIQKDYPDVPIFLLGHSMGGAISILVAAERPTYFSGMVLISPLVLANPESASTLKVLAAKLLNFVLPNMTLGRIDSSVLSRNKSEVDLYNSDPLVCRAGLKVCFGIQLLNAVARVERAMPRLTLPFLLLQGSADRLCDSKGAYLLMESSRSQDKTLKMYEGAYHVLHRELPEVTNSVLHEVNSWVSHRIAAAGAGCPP
Experimental: as §1, §2

Row | SMILES | inhibition at 1 µM [1] [%] | inhibition at 1 µM [2] [%] | IC50 [1] [nM] | IC50 [2] [nM]
1 | CS(=O)(=O)Nc1ccn(C(=O)N2CCN(Cc3ccc(C(F)(F)F)c(N4CCCC4)c3)CC2)n1 [Example 153, N-(1-(4-(3-(pyrrolidin-1-yl)-4-(trifluoromethyl)benzyl)piperazine-1-carbonyl)-1H-pyrazol-3-yl) methanesulfonamide] | 0 to 25 | ≥ 75 | – | –
2 | CC(=O)Nc1ccn(C(=O)N2CCC3(CCCN3Cc3cc(Oc4nc5ccccc5s4)cc(C(F)(F)F)c3)CC2)n1 [Example 86, N-(1-(1-(3-(benzo[d]thiazol-2-yloxy)-5-(trifluoromethyl)benzyl)-1,8-diazaspiro[4.5]decane-8-carbonyl)-1H-pyrazol-3-yl)acetamide] | 50 to 75 | ≥ 75 | – | –
3 | CS(=O)(=O)Nc1ccn(C(=O)N2CCN(Cc3cc(N4CCOCC4)cc(C(F)(F)F)c3)CC2)n1 [Example 155, N-(1-(4-(3-morpholino-5-(trifluoromethyl)benzyl)piperazine-1-carbonyl)-1H-pyrazol-3-yl) methanesulfonamide] | 0 to 25 | ≥ 75 | – | –
4 | CC(=O)Nc1ccn(C(=O)N2CCC3(CCCN3Cc3ccc4c(ccn4C)c3)CC2)n1 [Example 185, N-(1-(1-((1-methyl-1H-indol-5-yl)methyl)-1,8-diazaspiro[4.5]decane-8-carbonyl)-1H-pyrazol-3-yl)acetamide] | 0 to 25 | ≥ 75 | 1000 to 10000 | 1000 to 10000
5 | CS(=O)(=O)Nc1ccn(C(=O)N2CCC3(CCCN3Cc3ccc(Cl)cc3N3CCOCC3)CC2)n1 [Example 264, N-(1-(1-(4-chloro-2-morpholinobenzyl)-1,8-diazaspiro[4.5]decane-8-carbonyl)-1H-pyrazol-3-yl) methanesulfonamide] | 0 to 25 | 25 to 50 | – | –
6 | Cc1c(CN2CCCC23CCN(C(=O)n2ccc(NS(C)(=O)=O)n2)CC3)cccc1N1CCOCC1 [Example 226, N-(1-(1-(2-methyl-3-morpholinobenzyl)-1,8-diazaspiro[4.5]decane-8-carbonyl)-1H-pyrazol-3-yl) methanesulfonamide] | 0 to 25 | 0 to 25 | – | –
7 | CC(=O)Nc1ccn(C(=O)N2CCC3(CCCN3Cc3ccc(C(F)(F)F)c(Cl)c3)CC2)n1 [Example 24, N-(1-(1-(3-chloro-4-(trifluoromethyl)benzyl)-1,8-diazaspiro[4.5]decane-8-carbonyl)-1H-pyrazol-3-yl)acetamide] | 0 to 25 | ≥ 75 | 1000 to 10000 | ≤ 100
8 | CC(=O)Nc1ccn(C(=O)N2CCN(Cc3ccc(C(F)(F)F)cc3N3CCC(NC(C)=O)CC3)CC2)n1 [Example 275, N-(1-(2-((4-(3-acetamido-1H-pyrazole-1-carbonyl)piperazin-1-yl)methyl)-5-(trifluoromethyl)phenyl)piperidin-4-yl)acetamide] | 0 to 25 | ≥ 75 | – | –
9 | CS(=O)(=O)Nc1ccn(C(=O)N2CCN(Cc3ccc(C(F)(F)F)cc3-c3nnn[nH]3)CC2)n1 [Example 259, N-(1-(4-(2-(1H-tetrazol-5-yl)-4-(trifluoromethyl)benzyl)piperazine-1-carbonyl)-1H-pyrazol-3-yl) methanesulfonamide] | 0 to 25 | 50 to 75 | – | –
10 | CC(C)C(=O)Nc1ccn(C(=O)N2CCN(Cc3ccc(C(F)(F)F)cc3N3CCCC3)CC2)n1 [Example 263, N-(1-(4-(2-(pyrrolidin-1-yl)-4-(trifluoromethyl)benzyl)piperazine-1-carbonyl)-1H-pyrazol-3-yl)isobutyramide] | 0 to 25 | ≥ 75 | 1000 to 10000 | 100 to 1000
11 | CS(=O)(=O)Nc1ccn(C(=O)N2CCN(Cc3ccc(N4CCC(C(=O)O)CC4)c(C(F)(F)F)c3)CC2)n1 [Example 169, 1-(4-((4-(3-(methylsulfonamido)-1H-pyrazole-1-carbonyl)piperazin-1-yl)methyl)-2-(trifluoromethyl)phenyl)piperidine-4-carboxylic acid] | 0 to 25 | 0 to 25 | – | –
12 | CC(=O)Nc1ccn(C(=O)N2CCN(Cc3ccc(Cl)cc3N3CCC(F)CC3)CC2)n1 [Example 7, N-(1-(4-(4-chloro-2-(4-fluoropiperidin-1-yl)benzyl)piperazine-1-carbonyl)-1H-pyrazol-3-yl)acetamide] | 0 to 25 | ≥ 75 | 1000 to 10000 | ≤ 100
13 | CC(=O)Nc1ccn(C(=O)N2CCN(Cc3ccc(C#N)cc3-c3nnn[nH]3)CC2)n1 [Example 115, N-(1-(4-(4-cyano-2-(1H-tetrazol-5-yl)benzyl)piperazine-1-carbonyl)-1H-pyrazol-3-yl)acetamide] | 0 to 25 | ≥ 75 | 1000 to 10000 | 100 to 1000

Continued, values first:

Row | inhibition at 1 µM [1] [%] | inhibition at 1 µM [2] [%] | IC50 [1] [nM] | IC50 [2] [nM] | SMILES
14 | 0 to 25 | 0 to 25 | – | – | CS(=O)(=O)Nc1ccn(C(=O)N2CCC3(CCCN3Cc3ccc(N4CCOCC4)cc3C(F)(F)F)CC2)n1 [Example 164, N-(1-(1-(4-morpholino-2-(trifluoromethyl)benzyl)-1,8-diazaspiro[4.5]decane-8-carbonyl)-1H-pyrazol-3-yl)methanesulfonamide]
15 | 0 to 25 | 25 to 50 | – | – | Cn1ncc2cc(CN3CCN(C(=O)n4ccc(NS(C)(=O)=O)n4)CC3)ccc21 [Example 184, N-(1-(4-((1-methyl-1H-indazol-5-yl)methyl)piperazine-1-carbonyl)-1H-pyrazol-3-yl) methanesulfonamide]
16 | 0 to 25 | ≥ 75 | – | – | CS(=O)(=O)Nc1ccn(C(=O)N2CCN(Cc3cc(N4CCCC4)ccc3C(F)(F)F)CC2)n1 [Example 195, N-(1-(4-(5-(pyrrolidin-1-yl)-2-(trifluoromethyl)benzyl)piperazine-1-carbonyl)-1H-pyrazol-3-yl) methanesulfonamide]
17 | 0 to 25 | 50 to 75 | – | – | CS(=O)(=O)Nc1ccn(C(=O)N2CCN(Cc3cc(C(F)(F)F)ccc3N3CCOCC3)CC2)n1 [Example 124, N-(1-(4-(2-morpholino-5-(trifluoromethyl)benzyl)piperazine-1-carbonyl)-1H-pyrazol-3-yl) methanesulfonamide]
18 | 0 to 25 | 50 to 75 | – | – | Cc1c(CN2CCCC23CCN(C(=O)n2ccc(NS(C)(=O)=O)n2)CC3)cccc1N1CC2CCC(C1)O2 [Example 149, N-(1-(1-(3-(8-oxa-3-azabicyclo[3.2.1]octan-3-yl)-2-methylbenzyl)-1,8-diazaspiro[4.5]decane-8-carbonyl)-1H-pyrazol-3-yl) methanesulfonamide]
19 | 0 to 25 | ≥ 75 | – | – | CC(=O)Nc1ccn(C(=O)N2CCN(Cc3ccc(C(F)(F)F)cc3N3CCN(CC(=O)O)CC3)CC2)n1 [Example 277, 2-(4-(2-((4-(3-acetamido-1H-pyrazole-1-carbonyl)piperazin-1-yl)methyl)-5-(trifluoromethyl)phenyl)piperazin-1-yl)acetic acid]
20 | 0 to 25 | 0 to 25 | – | – | CCN1CCN(c2cc(C(F)(F)F)ccc2CN2CCCC23CCN(C(=O)n2ccc(NS(C)(=O)=O)n2)CC3)CC1 [Example 238, N-(1-(1-(2-(4-ethylpiperazin-1-yl)-4-(trifluoromethyl)benzyl)-1,8-diazaspiro[4.5]decane-8-carbonyl)-1H-pyrazol-3-yl) methanesulfonamide]
